Consider 3 molecules from patent US4724229A, “Arg-arg-arg-vasopressin antagonists” (Smithkline Beckman Corporation, priority 1986, dated 1988).

One may read the Ki as the equilibrium dissociation constant of an inhibitor or competing ligand from its target.

Numbered stars: 1 amine (or outer) side, 2 acyl side, 3 side chain; on linkers, the order of the positions; unused ones are H or OH. Bridge positions count the residues as written; N and C are the ends. Square brackets hold non-standard residues; d marks the D form. Peptide text beside a SMILES is read from it. X1 = O=C(CC1(S[*:2])CCCCC1)[*:1]

Assay [1] deals with T1, receptor in the human liver membrane tissue (V1) (Homo sapiens, UniProt P37288).
T1 construct: in the human liver membrane tissue; from tissue; host or cells: human liver membranes
The assay can be described thus: Binding to human liver membranes V1 (Kbind). The protocol:
(§1) V2 -antagonistic activity toward the natural anti-diuretic hormone (anti-ADH activity) is determined, in vitro, in the medullary tissue of hog or human kidneys and, in vivo, in the hydropenic rat. The in vitro assay procedures for vasopressin stimulated adenylate cyclase activation or vasopressin binding activity are described by F. Stassen et al., J. Pharmacology and Experimental Therapeutics, 223, 50-54 (1982). V1 -antagonistic activity is determined by procedures using the rat thoracic aorta tissue and plasma membranes of rat liver. These procedures are described in the noted Stassen publication and in a publication at the 1st International Conference on Diuretics, Miami, Fla., March (1984). Oxytocin antagonism is determined as described by W. Sawyer et al., Endocrinology, 106 81 (1979).
^d Kbind is a measure of the affinity of a ligand for a receptor
in the human liver membrane tissue. It is derived from the equation in […]

Assay [2] has as its target T2, receptor in the porcine renal medullary membrane (vasopressin V2 -receptors) (Sus scrofa, UniProt P32307).
T2 construct: in the porcine renal medullary membrane; from tissue; host or cells: porcine renal medullary membranes
Put plainly: [3H]LVP binding, porcine renal medullary membrane (Kbind). The conditions noted are these: competition with [3H]LVP binding, Kb = IC50/(1 + L/KD). As to the method:
as §1, with “(1979). | ^a Kbind is a measure of the affinity of a ligand for a receptor | in the porcine renal medullary membrane. It is derived from the equation | for competitive inhibition Kb = IC50 /(1 + L/KD) where | IC50 is the concentration of the ligand for 50% inhibition of [^ | H]LVP binding, L is the concentration of the ligand, and KD is the | dissociation constant of [^3 H]LVP.” for “(1979).”

Assay [3] concerns the target T3, LVP stimulated adenylate cyclase of pig kidney medullary membrane (Sus scrofa, UniProt P32307).
T3 construct: stimulated adenylate cyclase of pig kidney medullary membrane; from tissue; host or cells: pig kidney medullary membranes
Put plainly: Inhibition of LVP stimulated adenylate cyclase of pig kidney medullary membrane. Format: biochemical. The protocol: as §1, with “(1979). | ^b Ki is the inhibition constant measured for inhibition of LVP | stimulated adenylate cyclase of pig kidney medullary membrane, and is | derived from the equation for competitive inhibition as described.” for “(1979).”

T2 sequence (P32307 whole entry): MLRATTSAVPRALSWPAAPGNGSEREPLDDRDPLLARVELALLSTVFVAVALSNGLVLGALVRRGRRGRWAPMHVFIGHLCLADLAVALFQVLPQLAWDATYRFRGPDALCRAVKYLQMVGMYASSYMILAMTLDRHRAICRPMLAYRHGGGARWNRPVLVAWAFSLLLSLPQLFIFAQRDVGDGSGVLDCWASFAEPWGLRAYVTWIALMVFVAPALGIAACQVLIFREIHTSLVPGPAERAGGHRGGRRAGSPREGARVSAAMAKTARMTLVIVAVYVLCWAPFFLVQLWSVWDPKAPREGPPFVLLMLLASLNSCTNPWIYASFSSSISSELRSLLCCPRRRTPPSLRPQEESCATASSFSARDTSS
T1 sequence (P37288 whole entry): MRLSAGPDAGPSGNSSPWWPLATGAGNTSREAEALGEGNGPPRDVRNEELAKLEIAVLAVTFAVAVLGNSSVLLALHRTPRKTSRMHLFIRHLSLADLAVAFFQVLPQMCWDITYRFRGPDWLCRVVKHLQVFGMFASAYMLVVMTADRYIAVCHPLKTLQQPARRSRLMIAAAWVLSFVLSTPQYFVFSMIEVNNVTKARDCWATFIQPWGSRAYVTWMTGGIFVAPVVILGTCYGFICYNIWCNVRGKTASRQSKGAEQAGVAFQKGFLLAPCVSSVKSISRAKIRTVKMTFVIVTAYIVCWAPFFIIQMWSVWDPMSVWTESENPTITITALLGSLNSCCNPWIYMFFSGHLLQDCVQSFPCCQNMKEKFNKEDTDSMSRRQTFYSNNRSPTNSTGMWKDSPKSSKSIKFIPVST
T3 sequence (P32307 whole entry): as the sequence (P32307 whole entry) above

On to `CCOc1ccc(C[C@H]2NC(=O)CC3(CCCCC3)SSC[C@@H](C(=O)N[C@@H](CCCNC(=N)N)C(=O)N[C@@H](CCCNC(=N)N)C(=O)N[C@@H](CCCNC(=N)N)C(N)=O)NC(=O)[C@H](CC(N)=O)NC(=O)[C@H](C(C)C)NC(=O)[C@H](Cc3ccccc3)NC2=O)cc1` [No. 1, [1-(β-mercapto-β,β-cyclopentamethylenepropionic acid)-2-(O-ethyl)-D-tyrosine-4-valine-7-arginine-8-arginine-9-arginine]-vasopressin] ([dY](Et)FVNCRRR-NH2; linker N-5 via X1), for which the results for the Ki in assay [1], in assay [2] and in assay [3] were 4.41 nM, 2.6 nM and 1.54 nM, respectively.
As to `CCOc1ccc(C[C@H]2NC(=O)CC3(CCCCC3)SSC[C@@H](C(=O)N[C@@H](CCCNC(=N)N)C(N)=O)NC(=O)[C@H](CC(N)=O)NC(=O)[C@H](C(C)C)NC(=O)[C@H](Cc3ccccc3)NC2=O)cc1` [compound 2] ([dY](Et)FVNCR-NH2; linker N-5 via X1), the figures for the Ki in assay [1] and in assay [2] were 1.3 nM and 9.1 nM, respectively.
Regarding `CCOc1ccc(C[C@H]2NC(=O)CC3(CCCCC3)SSC[C@@H](C(=O)N[C@@H](CCCNC(=N)N)C(=O)N[C@@H](CCCNC(=N)N)C(N)=O)NC(=O)[C@H](CC(N)=O)NC(=O)[C@H](C(C)C)NC(=O)[C@H](Cc3ccccc3)NC2=O)cc1` [compound 3] ([dY](Et)FVNCRR-NH2; linker N-5 via X1), the Ki was determined as 1.3 nM in assay [1], 3.4 nM in assay [2] and 1.7 nM in assay [3].
